Article PMC12543283, “TastepepAI: An artificial intelligence platform for taste peptide de novo design” (PLOS Computational Biology, 2025)
Values joined by “and” are separate entries in the source; they are usually repeats but may differ in a detail not shown here. Equal entries are not always repeated. Ends that are not written are not given here.

Key:
[1] = Electronic tongue analysis (Taste-Sensing System SA 402B); parameters: unit not given here; conditions: reference solution 30 mM KCl + 0.3 mM tartaric acid as baseline, first measurement excluded; for Umami: sensor AAE; for Umami / Bitter / Sweet: detection threshold 0, room temperature; for Umami / Bitter / Sour / Salty: four replicates; for Sour: detection threshold -13, room temperature; for Salty: detection threshold -6, room temperature; for Sweet: measured five times
How it was run: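 Samples were tested at 0.1 and 1.0 mg/mL on an SA 402B e-tongue fitted with sourness, saltiness, bitterness, sweetness and umami sensors, with 30 mM KCl/0.3 mM tartaric acid as reference and baseline. Thresholds were −13 for sour, −6 for salty and 0 for the rest. Runs at room temperature: four replicates, five for sweetness, first reading discarded.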

[2] = test system: human bronchial epithelial cells (BEAS-2B)
[3] = test system: human embryonic kidney cells (HEK293T)
[4] = test system: human pancreatic ductal epithelial cells (HPNE)
Description: The cytotoxicity of 73 synthetic peptides was evaluated using four human cell lines: human pancreatic ductal epithelial cells (HPNE), human embryonic kidney cells (HEK293T), human umbilical vein endothelial cells (HUVEC), and human bronchial epithelial cells (BEAS-2B). When cell density reached 70% confluence, the complete culture medium was replaced with serum-free maintenance medium, and peptides were added at a final concentration of 100 μM for 36 h. Control groups received only serum-free maintenance medium without peptides. Cell proliferation was assessed using the CCK-8 assay kit (Solarbio, CA1210) according to the manufacturer’s instructions.

[5] = test system: human umbilical vein endothelial cells (HUVEC)

Substance	Umami ([1]; peptide 0.1 mg/mL)	Umami ([1]; peptide 1 mg/mL)	Bitter ([1]; sensor C00, peptide 0.1 mg/mL)	Bitter ([1]; sensor C00, peptide 1 mg/mL)	Sour ([1]; sensor CA0, peptide 0.1 mg/mL)	Sour ([1]; sensor CA0, peptide 1 mg/mL)	Salty ([1]; sensor CT0, peptide 0.1 mg/mL)	Salty ([1]; sensor CT0, peptide 1 mg/mL)	Sweet ([1]; sensor GL1, peptide 0.1 mg/mL)	Sweet ([1]; sensor GL1, peptide 1 mg/mL)	Average cell viability, BEAS-2B [2]	Cell viability, BEAS-2B, Data1 [2]	Cell viability, BEAS-2B, Data2 [2]	Cell viability, BEAS-2B, Data3 [2]	Average cell viability, HEK293T [3]	Cell viability, HEK293T, Data1 [3]	Cell viability, HEK293T, Data2 [3]	Cell viability, HEK293T, Data3 [3]	Average cell viability, HPNE [4]	Cell viability, HPNE, Data1 [4]	further results
KADGNR [TaPep4]	1.35	-5.17	7.74	1.90	-2.92	13.79	-16.43	17.52	4.21	-5.50	96.81	99.00	95.11	96.31	102.74	102.11	102.49	103.63	97.84	95.76	Cell viability, HPNE, Data2 [4]: 97.39; Cell viability, HPNE, Data3 [4]: 100.36; Average cell viability, HUVEC [5]: 105.16; Cell viability, HUVEC, Data1 [5]: 113.12; Cell viability, HUVEC, Data2 [5]: 102.98; Cell viability, HUVEC, Data3 [5]: 99.39
KGGEV [TaPep68]	0.75	-4.79	7.39	3.94	-1.26	12.33	-15.75	12.33	3.06	-4.04	104.35	106.68	113.46	92.92	100.03	100.79	94.92	104.38	94.11	97.24	Cell viability, HPNE, Data2 [4]: 99.23; Cell viability, HPNE, Data3 [4]: 85.86; Average cell viability, HUVEC [5]: 103.75; Cell viability, HUVEC, Data1 [5]: 103.54; Cell viability, HUVEC, Data2 [5]: 113.44; Cell viability, HUVEC, Data3 [5]: 94.28
KGYEAV [TaPep5]	1.93	-5.17	7.90	bitterness suppression and -0.10	-4.04	12.61	-18.14	14.26	6.12	-5.63	113.59	105.38	117.75	117.65	97.32	101.17	95.30	95.49	113.38	117.83	Cell viability, HPNE, Data2 [4]: 109.17; Cell viability, HPNE, Data3 [4]: 113.13; Average cell viability, HUVEC [5]: 105.38; Cell viability, HUVEC, Data1 [5]: 115.43; Cell viability, HUVEC, Data2 [5]: 105.06; Cell viability, HUVEC, Data3 [5]: 95.64
KNDESVD [TaPep48]	1.19	-4.97	7.92	4.06	-2.20	12.29	-19.00	9.10	5.24	-3.88	98.21	105.18	91.23	98.21	103.91	103.15	102.59	105.99	102.66	87.85	Cell viability, HPNE, Data2 [4]: 109.32; Cell viability, HPNE, Data3 [4]: 110.82; Average cell viability, HUVEC [5]: 107.58; Cell viability, HUVEC, Data1 [5]: 110.24; Cell viability, HUVEC, Data2 [5]: 102.34; Cell viability, HUVEC, Data3 [5]: 110.16
KTYSA [TaPep49]	0.96	-3.34	7.26	2.53	-7.10	8.30	-15.59	11.00	7.69	-3.73	100.60	99.20	96.41	106.18	96.97	99.94	94.54	96.44	94.58	82.96	Cell viability, HPNE, Data2 [4]: 86.76; Cell viability, HPNE, Data3 [4]: 114.01; Average cell viability, HUVEC [5]: 102.29; Cell viability, HUVEC, Data1 [5]: 99.15; Cell viability, HUVEC, Data2 [5]: 103.94; Cell viability, HUVEC, Data3 [5]: 103.78
LGDDLVK [TaPep19]	2.00	-4.34	7.19	3.19	-4.23	10.91	-21.50	8.70	6.20	-4.08	111.70	111.27	110.77	113.06	106.88	110.63	106.37	103.63	100.07	102.93	Cell viability, HPNE, Data2 [4]: 114.51; Cell viability, HPNE, Data3 [4]: 82.76; Average cell viability, HUVEC [5]: 102.69; Cell viability, HUVEC, Data1 [5]: 92.52; Cell viability, HUVEC, Data2 [5]: 103.78; Cell viability, HUVEC, Data3 [5]: 111.76
LGGDL [TaPep58]	2.07	-4.23	7.49	3.43	-4.24	10.37	-21.68	10.46	7.50	-6.69	99.93	103.89	90.43	105.48	101.42	99.84	107.22	97.19	94.58	94.94	Cell viability, HPNE, Data2 [4]: 87.85; Cell viability, HPNE, Data3 [4]: 100.93; Average cell viability, HUVEC [5]: 99.81; Cell viability, HUVEC, Data1 [5]: 89.41; Cell viability, HUVEC, Data2 [5]: 103.78; Cell viability, HUVEC, Data3 [5]: 106.25
LNDVE [TaPep66]	1.83	-3.37	7.14	4.03	-3.77	8.49	-21.50	4.47	6.93	-3.10	98.04	103.39	89.73	101.00	101.96	96.81	102.97	106.09	110.62	96.14	Cell viability, HPNE, Data2 [4]: 118.00; Cell viability, HPNE, Data3 [4]: 117.70; Average cell viability, HUVEC [5]: 96.70; Cell viability, HUVEC, Data1 [5]: 88.85; Cell viability, HUVEC, Data2 [5]: 100.59; Cell viability, HUVEC, Data3 [5]: 100.67
LNGPQ [TaPep63]	1.41	-6.21	7.27	4.12	-2.72	15.39	-20.42	10.16	5.62	-5.33	103.52	114.46	93.02	103.09	99.12	94.35	104.86	98.14	97.14	82.16	Cell viability, HPNE, Data2 [4]: 94.94; Cell viability, HPNE, Data3 [4]: 114.31; Average cell viability, HUVEC [5]: 95.61; Cell viability, HUVEC, Data1 [5]: 91.41; Cell viability, HUVEC, Data2 [5]: 96.35; Cell viability, HUVEC, Data3 [5]: 99.07
